From patent publication US9115143B2, “Substituted indole derivatives as gamma secretase modulators” (Janssen Pharmaceuticals, Inc., priority 2011, dated 2015) come the findings set out here.

The subject of one series is Aβtotal. Description: Screening for γ-secretase-modulating activity: Aβtotal in supernatant of SKNBE2 cells carrying hAPP 695 wild type (Alphalisa). The class given is cell-based, human. To be noted: overnight incubation, Alphalisa on supernatant. An outline of the steps: (§1)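 Secreted Aβ42 (C-terminal/N-terminal antibody pair) and Aβtotal (N-terminal/mid-region pair) were quantified by AlphaLISA after overnight compound exposure of wild-type hAPP 695 SKNBE2 cells at 37 °C. Values expressed relative to compound-free maximum, with IC50 from nonlinear 4-parameter regression.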

In the next series the test system is Aβ42. Description: Screening for γ-secretase-modulating activity: Aβ42 in supernatant of SKNBE2 cells carrying hAPP 695 wild type (Alphalisa). The class given is cell-based, human. To be noted: overnight incubation, Alphalisa on supernatant. The gist of the method:
as §1
(Alpha assays give light when donor and acceptor beads are brought close together.)

[1] abbreviates: Homo sapiens, SKNBE2, SKNBE2 human neuroblastoma cells carrying hAPP 695 wild type.
Where [2] appears, read: SKNBE2 human neuroblastoma cells carrying hAPP 695 wild type.

One may read the IC50 as the concentration that inhibits the measured activity by half. A low value points to greater potency. As usually defined, the melting point is the temperature, or range, at which the solid turns liquid. In turn, `Cc1ccccc1C1CCCn2nc(-c3cc4cc(-c5cnn(C)c5)ccc4[nH]3)nc21` (stereo not drawn) [Compound 31, 5,6,7,8-tetrahydro-8-(2-methylphenyl)-2-[5-(1-methyl-1H-pyrazol-4-yl)-1H-indol-2-yl]-[1,2,4]triazolo[1,5-a]pyridine] registered a melting point of 223.8 °C. The IC50 in the series with Aβtotal (setting [1]) was greater than 10000 nM. The compound also showed an IC50 in the series on Aβ42 (setting [1]) of 76 nM.

Compound `Cc1cc(F)ccc1C1OCCn2nc(-c3cc4nc(-c5cnn(C)c5)ccc4[nH]3)nc21` (stereo not drawn) [Compound 106, 8-(4-fluoro-2-methylphenyl)-5,6-dihydro-2-[5-(1-methyl-1H-pyrazol-4-yl)-1H-pyrrolo[3,2-b]pyridin-2-yl]-8H-[1,2,4]triazolo[5,1-c][1,4]oxazine] yielded a melting point of 263.8 °C. Moreover, in the series with Aβtotal (setting [1]), the IC50 was greater than 10000 nM. In addition, the IC50 with Aβ42 (setting [1]) worked out at 447 nM.

`Cc1cc(F)ccc1C1CCCn2cc(-c3cc4cc(C#N)ncc4[nH]3)nc21` (stereo not drawn) [Compound 72, 2-[8-(4-fluoro-2-methylphenyl)-5,6,7,8-tetrahydroimidazo[1,2-a]pyridin-2-yl]-1H-pyrrolo[2,3-c]pyridine-5-carbonitrile] returned a melting point of 255.5 °C. For the same compound, in the series on Aβtotal (setting [1]), the IC50 was greater than 10000 nM. Moreover, the IC50 with Aβ42 (setting [1]) came out at 126 nM.

The compound `N#Cc1ccc2[nH]c(-c3nc4n(n3)CCCC4c3ccc(F)cc3C(F)(F)F)cc2c1` (stereo not drawn) [Compound 22, 2-[8-[4-fluoro-2-(trifluoromethyl)phenyl]-5,6,7,8-tetrahydro[1,2,4]triazolo[1,5-a]pyridin-2-yl]-1H-indole-5-carbonitrile] had a melting point of 265 °C. In the series with Aβtotal (setting [1]), this compound came in with an IC50 greater than 10000 nM. For the same compound, the IC50 with Aβ42 (setting [1]) is 138 nM.

Compound `Cc1cn(-c2ccc3[nH]c(-c4nc5n(n4)CCOC5c4ccc(F)cc4C)cc3c2)cn1` (single isomer, unassigned) [Compound 109, 8-(4-fluoro-2-methylphenyl)-5,6-dihydro-2-[5-(4-methyl-1H-imidazol-1-yl)-1H-indol-2-yl]-8H-[1,2,4]triazolo[5,1-c][1,4]oxazine] gave a melting point of 278.9 °C. The compound also registered an IC50 in the series with Aβtotal (setting [1]) greater than 10000 nM. In addition, the IC50 in the series on Aβ42 (setting [2]) worked out at 537 nM.

Take `N#Cc1ccc2[nH]c(-c3nc4n(n3)CCCC4c3ccccc3Cl)cc2c1` (stereo not drawn) [Compound 62, 2-[8-(2-chlorophenyl)-5,6,7,8-tetrahydro[1,2,4]triazolo[1,5-a]pyridin-2-yl]-1H-indole-5-carbonitrile]: the melting point turned out to be 208.6 °C. This compound yielded an IC50 in the series on Aβtotal (setting [1]) greater than 10000 nM. For the same compound, the IC50 in the series on Aβ42 (setting [1]) came out at 245 nM.

`Cc1cc(-c2ccc3[nH]c(-c4nc5n(n4)CCCC5c4ccc(F)cc4C)cc3n2)ccn1` (stereo not drawn) [Compound 33, 8-(4-fluoro-2-methylphenyl)-5,6,7,8-tetrahydro-2-[5-(2-methyl-4-pyridinyl)-1H-pyrrolo[3,2-b]pyridin-2-yl]-[1,2,4]triazolo[1,5-a]pyridine]: the melting point stood at 267.2 °C. In the series on Aβtotal (setting [1]), this compound displayed an IC50 greater than 10000 nM. Moreover, half-maximal inhibition in the series with Aβ42 (setting [1]) (IC50) was put at 49 nM.

The compound `COc1c(C#N)ccc2[nH]c(-c3cn4c(n3)C(c3ccccc3C3CC3)OCC4)cc12` (stereo not drawn) [Compound 169, 2-[8-(2-cyclopropylphenyl)-5,6-dihydro-8H-imidazo[2,1-c][1,4]oxazin-2-yl]-4-methoxy-1H-indole-5-carbonitrile] yielded a melting point of 270.8 °C. Further, in the series on Aβtotal (setting [2]), the IC50 is greater than 10000 nM. The same compound returned an IC50 in the series on Aβ42 (setting [2]) of 759 nM.

As to `COc1c(C#N)ccc2[nH]c(-c3nc4n(n3)CCOC4c3c(C)cccc3F)cc12` (stereo not drawn) [Compound 142, 2-[8-(2-fluoro-6-methylphenyl)-5,6-dihydro-8H-[1,2,4]triazolo[5,1-c][1,4]oxazin-2-yl]-4-methoxy-1H-indole-5-carbonitrile], the melting point was found to be 244.8 °C. Besides, in the series on Aβtotal (setting [2]), the IC50 is greater than 10000 nM. In addition, the IC50 in the series with Aβ42 (setting [2]) was found to be 2820 nM.

`Cc1ccccc1C1CCCn2nc(-c3cc4nc(C#N)ccc4[nH]3)nc21` (stereo not drawn) [Compound 25, 2-[5,6,7,8-tetrahydro-8-(2-methylphenyl)[1,2,4]triazolo[1,5-a]pyridin-2-yl]-1H-pyrrolo[3,2-b]pyridine-5-carbonitrile]: the melting point was 264.9 °C. Also, the IC50 with Aβtotal (setting [1]) is greater than 10000 nM. Half-maximal inhibition in the series with Aβ42 (setting [1]) (IC50) required 398 nM.

On to `COc1c(C#N)ccc2[nH]c(-c3cn4c(n3)C(c3ccc(F)cc3C)OCC4)cc12` (stereo not drawn) [Compound 48, 2-[8-(4-fluoro-2-methylphenyl)-5,6-dihydro-8H-imidazo[2,1-c][1,4]oxazin-2-yl]-4-methoxy-1H-indole-5-carbonitrile], for which the melting point stood at 244.4 °C. For the same compound, the IC50 in the series on Aβtotal (setting [2]) is greater than 10000 nM. Besides, the IC50 in the series on Aβ42 (setting [2]) came out at 1020 nM.

In turn, `Cc1cn(-c2ccc3[nH]c(-c4nc5n(n4)CCOC5c4ccc(F)cc4C)cc3c2)cn1` (single isomer, unassigned) [Compound 110, 8-(4-fluoro-2-methylphenyl)-5,6-dihydro-2-[5-(4-methyl-1H-imidazol-1-yl)-1H-indol-2-yl]-8H-[1,2,4]triazolo[5,1-c][1,4]oxazine] yielded a melting point of 278 °C. The IC50 with Aβtotal (setting [2]) was greater than 10000 nM. 36 nM corresponded to half-maximal inhibition in the series on Aβ42 (setting [2]) (IC50).

On to `COc1ccccc1C1CCCn2cc(-c3cc4cc(C#N)ccc4[nH]3)nc21` (stereo not drawn) [Compound 67, 2-[5,6,7,8-tetrahydro-8-(2-methoxyphenyl)imidazo[1,2-a]pyridin-2-yl]-1H-indole-5-carbonitrile], for which the melting point is 251 °C. The compound also showed an IC50 in the series with Aβtotal (setting [1]) greater than 10000 nM. Further, the IC50 in the series with Aβ42 (setting [1]) came out at 501 nM.

As for `COc1c(C#N)ccc2[nH]c(-c3cn4c(n3)C(c3ccccc3C3CC3)OCC4)cc12` (stereo not drawn) [Compound 170, 2-[8-(2-cyclopropylphenyl)-5,6-dihydro-8H-imidazo[2,1-c][1,4]oxazin-2-yl]-4-methoxy-1H-indole-5-carbonitrile], the melting point worked out at 269.8 °C. Moreover, in the series with Aβtotal (setting [1]), the half-maximal inhibitory concentration (IC50) was greater than 10000 nM. Also, half-maximal inhibition with Aβ42 (setting [2]) (IC50) was put at 11 nM.

Compound `COc1ccccc1C1CCCn2nc(-c3cc4cc(C#N)ccc4[nH]3)nc21` (stereo not drawn) [Compound 19, 2-[5,6,7,8-tetrahydro-8-(2-methoxyphenyl)[1,2,4]triazolo[1,5-a]pyridin-2-yl]-1H-indole-5-carbonitrile] showed a melting point of 139.6 °C. The compound also registered an IC50 with Aβtotal (setting [1]) greater than 10000 nM. Further, the IC50 with Aβ42 (setting [1]) came out at 661 nM.

As to `N#Cc1ccc2[nH]c(-c3nc4n(n3)CCCC4c3cc(C(F)(F)F)ccc3F)cc2c1` (stereo not drawn) [Compound 21, 2-[8-[2-fluoro-5-(trifluoromethyl)phenyl]-5,6,7,8-tetrahydro[1,2,4]triazolo[1,5-a]pyridin-2-yl]-1H-indole-5-carbonitrile], the melting point worked out at 184.3 °C. In the series on Aβtotal (setting [1]), this compound showed an IC50 greater than 10000 nM. In the series on Aβ42 (setting [1]), this compound registered an IC50 of 355 nM.

The compound `COc1ccc2[nH]c(-c3nc4n(n3)CCCC4c3ccccc3C(F)(F)F)cc2c1` (stereo not drawn) [Compound 29, 5,6,7,8-tetrahydro-2-(5-methoxy-1H-indol-2-yl)-8-[2-(trifluoromethyl)phenyl]-[1,2,4]triazolo[1,5-a]pyridine] yielded a melting point of 183 °C. The IC50 with Aβtotal (setting [1]) is greater than 15100 nM. In addition, the IC50 in the series on Aβ42 (setting [1]) is 4790 nM.

Regarding `N#Cc1ccc2[nH]c(-c3nc4n(n3)CCCC4c3ccccc3C(F)(F)F)nc2c1` (stereo not drawn) [Compound 38, 2-[5,6,7,8-tetrahydro-8-[2-(trifluoromethyl)phenyl][1,2,4]triazolo[1,5-a]pyridin-2-yl]-1H-benzimidazole-5-carbonitrile], the melting point worked out at 252.2 °C. This compound also came in with an IC50 with Aβtotal (setting [1]) greater than 10000 nM. The compound also returned an IC50 with Aβ42 (setting [1]) of 871 nM.

`COc1c(C#N)ccc2[nH]c(-c3nc4n(n3)CCCC4(O)c3ccc(F)cc3C)cc12` (stereo not drawn) [Compound 60, 2-[8-(4-fluoro-2-methylphenyl)-5,6,7,8-tetrahydro-8-hydroxy[1,2,4]triazolo[1,5-a]pyridin-2-yl]-4-methoxy-1H-indole-5-carbonitrile]: the melting point turned out to be 287.1 °C. The IC50 with Aβtotal (setting [1]) is greater than 10000 nM. The compound further registered an IC50 in the series with Aβ42 (setting [1]) of 138 nM.

As to `COc1c(C#N)ccc2[nH]c(-c3nc4n(n3)CCOC4c3ccc(F)cc3C)cc12` (stereo not drawn) [Compound 115, 2-[8-(4-fluoro-2-methylphenyl)-5,6-dihydro-8H-[1,2,4]triazolo[5,1-c][1,4]oxazin-2-yl]-4-methoxy-1H-indole-5-carbonitrile], the melting point was 257.4 °C. This compound also displayed an IC50 in the series on Aβtotal (setting [2]) greater than 10000 nM. This compound displayed an IC50 in the series on Aβ42 (setting [2]) of 1480 nM.

Turning to `COc1c(C#N)ccc2[nH]c(-c3cn4c(n3)C(c3ccccc3Cl)OCC4)cc12` (stereo not drawn) [Compound 51, 2-[8-(2-chlorophenyl)-5,6-dihydro-8H-imidazo[2,1-c][1,4]oxazin-2-yl]-4-methoxy-1H-indole-5-carbonitrile], the melting point was 255.6 °C. In the series on Aβtotal (setting [2]), this compound came in with an IC50 greater than 10000 nM. In addition, in the series on Aβ42 (setting [2]), the IC50 was found to be 708 nM.

In turn, `N#Cc1ccc2[nH]c(-c3nc4n(n3)CCCC4c3ccccc3C(F)(F)F)cc2n1` (stereo not drawn) [Compound 26, 2-[5,6,7,8-tetrahydro-8-[2-(trifluoromethyl)phenyl][1,2,4]triazolo[1,5-a]pyridin-2-yl]-1H-pyrrolo[3,2-b]pyridine-5-carbonitrile] registered a melting point of 272.3 °C. This compound gave an IC50 in the series with Aβtotal (setting [1]) greater than 10000 nM. Also, in the series with Aβ42 (setting [1]), half-maximal inhibition (IC50) required 331 nM.

Take `CCc1cc(F)ccc1C1OCCn2nc(-c3cc4cc(-n5cnc(C)c5)ccc4[nH]3)nc21` (stereo not drawn) [Compound 105, 8-(2-ethyl-4-fluorophenyl)-5,6-dihydro-2-[5-(4-methyl-1H-imidazol-1-yl)-1H-indol-2-yl]-8H-[1,2,4]triazolo[5,1-c][1,4]oxazine]: the melting point turned out to be 285.7 °C. In addition, in the series on Aβtotal (setting [1]), the IC50 is greater than 10000 nM. The IC50 with Aβ42 (setting [1]) came out at 34 nM.

In the case of `N#Cc1ccc2cc(-c3nc4n(n3)CCCC4c3ccccc3C(F)(F)F)[nH]c2c1` (stereo not drawn) [Compound 61, 2-[5,6,7,8-tetrahydro-8-[2-(trifluoromethyl)phenyl][1,2,4]triazolo[1,5-a]pyridin-2-yl]-1H-indole-6-carbonitrile], the melting point was 175.7 °C. In the series on Aβtotal (setting [1]), this compound yielded an IC50 greater than 10000 nM. In the series with Aβ42 (setting [1]), this compound displayed a half-inhibitory concentration (IC50) of 3980 nM.
